# Results from US20010018065A1, “Compounds and methods for the treatment of bacterial dysentery using antibiotics and toxin binding oligosaccharide compositions” (priority 1998, published 2001).
# System: E. coli ATCC 25922
# Experiment: Minimum inhibitory concentration (NCCLS M7-A2) for reference strain
# Format: cell-based
# Settings: reference strain ATCC #25922; for MIC: Escherichia coli, ATCC25922
compound,measurement,value
C=CC1=C(C(=O)O)N2C(=O)[C@@H](NC(=O)/C(=N\OCC(=O)O)c3csc(N)n3)[C@H]2SC1 [Cefixime],MIC,0.96 µg/mL
O=C(O)c1cn(C2CC2)c2cc(N3CCNCC3)c(F)cc2c1=O [Ciprofloxacin],MIC,0.0384 µg/mL
CO[C@@]12[C@H](COC(N)=O)C3=C(C(=O)C(C)=C(N)C3=O)N1C[C@@H]1N[C@@H]12 [Mitomycin-C],Minimum Inhibitory Concentration,9.6 µg/mL
CN(C)[C@@H]1C(O)=C(C(N)=O)C(=O)[C@@]2(O)C(O)=C3C(=O)c4c(O)cccc4[C@@](C)(O)[C@H]3C[C@@H]12 [Tetracycline],MIC,1.92 µg/mL
